Laboratory results published in patent US4684664A, “Derivatives of β-(4-isocyano-1,2,3,4-diepoxycyclopentyl) acrylic acid” (Kureha Kagaku Kogyo Kabushiki Kaisha, priority 1984, dated 1987).
≈ marks a conversion by molar mass, not a printed value.

Tests used:
Type in all cases: cell-based
[1] = tested on: Staphylococcus aureus FDA 209PJc-1; assay: Antibacterial activity, agar-dilution MIC, organism No. 1; conditions: Staphylococcus aureus, FDA209PJC1; Organism No. 1, bouillon-agar; read-out: Minimum Inhibitory Concentration
Method in brief: (§1)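 MICs were determined by agar dilution on bouillon-agar medium. The value is the minimum concentration of specimen inhibiting growth, expressed as μg/ml of culture medium.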

[2] = tested on: Staphylococcus aureus Terajima; assay: Antibacterial activity, agar-dilution MIC, organism No. 2; conditions: Staphylococcus aureus; Organism No. 2, bouillon-agar; read-out: Minimum Inhibitory Concentration
Method in brief: as §1

[3] = tested on: Staphylococcus aureus MS 353; assay: Antibacterial activity, agar-dilution MIC, organism No. 3; conditions: Staphylococcus aureus, MS353; Organism No. 3, bouillon-agar; read-out: Minimum Inhibitory Concentration
Method in brief: as §1

[4] = tested on: Streptococcus pyogenes Cook; assay: Antibacterial activity, agar-dilution MIC, organism No. 4; conditions: Streptococcus pyogenes; Organism No. 4, bouillon-agar; read-out: Minimum Inhibitory Concentration
Method in brief: as §1

[5] = tested on: Escherichia coli NIHJ-JC-2; assay: Antibacterial activity, agar-dilution MIC, organism No. 5; conditions: Escherichia coli, NIHJJC2; Organism No. 5, bouillon-agar; read-out: Minimum Inhibitory Concentration
Method in brief: as §1

[6] = tested on: Escherichia coli K12 C600 IAM 1264; assay: Antibacterial activity, agar-dilution MIC, organism No. 6; conditions: Escherichia coli, IAM1264; Organism No. 6, bouillon-agar; read-out: Minimum Inhibitory Concentration
Method in brief: as §1

[7] = tested on: Klebsiella pneumoniae PCI-602; assay: Antibacterial activity, agar-dilution MIC, organism No. 7; conditions: Klebsiella pneumoniae, PCI602; Organism No. 7, bouillon-agar; read-out: Minimum Inhibitory Concentration
Method in brief: as §1

[8] = tested on: Salmonella typhimurium IID 971; assay: Antibacterial activity, agar-dilution MIC, organism No. 8; conditions: Salmonella enterica; Organism No. 8, bouillon-agar; read-out: Minimum Inhibitory Concentration
Method in brief: as §1

[9] = tested on: Salmonella typhi 901; assay: Antibacterial activity, agar-dilution MIC, organism No. 9; conditions: Salmonella enterica, TYPHI, read-out: Minimum Inhibitory Concentration
Method in brief: as §1

[10] = tested on: Salmonella paratyphi-A 1015; assay: Antibacterial activity, agar-dilution MIC, organism No. 10; conditions: Salmonella enterica, PARATYPHI, read-out: Minimum Inhibitory Concentration
Method in brief: as §1

[11] = tested on: Salmonella shottmuelleri 8006; assay: Antibacterial activity, agar-dilution MIC, organism No. 11; conditions: Salmonella, 8006; Organism No. 11, bouillon-agar; read-out: Minimum Inhibitory Concentration
Method in brief: as §1

[12] = tested on: Salmonella enteritidis G 14; assay: Antibacterial activity, agar-dilution MIC, organism No. 12; conditions: Salmonella enterica, ENTERITIDIS; Organism No. 12, bouillon-agar; read-out: Minimum Inhibitory Concentration
Method in brief: as §1

[13] = tested on: Serratia marcescens IAM 1184; assay: Antibacterial activity, agar-dilution MIC, organism No. 13; conditions: Serratia marcescens, IAM1184; Organism No. 13, bouillon-agar; read-out: Minimum Inhibitory Concentration
From the text: Agar-dilution method was used for determination of the antibacterial activity and antifungal activity while using bouillon-agar culture medium, and the minimum inhibitory concentration of the specimen was expressed by μg/ml of the culture medium.

[14] = tested on: Bacillus subtilis ATCC 6633; assay: Antibacterial activity, agar-dilution MIC, organism No. 14; conditions: Bacillus subtilis, ATCC6633; Organism No. 14, bouillon-agar; read-out: Minimum Inhibitory Concentration
Method in brief: as §1

[15] = tested on: Pseudomonas aeruginosa IFO 3445; assay: Antibacterial activity, agar-dilution MIC, organism No. 15; conditions: Pseudomonas aeruginosa, IFO3445; Organism No. 15, bouillon-agar; read-out: Minimum Inhibitory Concentration
Method in brief: as §1

[16] = tested on: Pseudomonas aeruginosa NCTC 10490; assay: Antibacterial activity, agar-dilution MIC, organism No. 16; conditions: Pseudomonas aeruginosa, NCTC10490; Organism No. 16, bouillon-agar; read-out: Minimum Inhibitory Concentration
Method in brief: as §1

[17] = tested on: Pseudomonas aeruginosa PAO 1; assay: Antibacterial activity, agar-dilution MIC, organism No. 17; conditions: Pseudomonas aeruginosa, PAO1; Organism No. 17, bouillon-agar; read-out: Minimum Inhibitory Concentration
Method in brief: as §1

[18] = tested on: Proteus morganii IFO 3848; assay: Antibacterial activity, agar-dilution MIC, organism No. 18; conditions: Morganella morganii, IFO3848; Organism No. 18, bouillon-agar; read-out: Minimum Inhibitory Concentration
Method in brief: as §1

[19] = tested on: Proteus mirabilis IFO 3849; assay: Antibacterial activity, agar-dilution MIC, organism No. 19; conditions: Proteus mirabilis, IFO3849; Organism No. 19, bouillon-agar; read-out: Minimum Inhibitory Concentration
Method in brief: as §1

[20] = tested on: Proteus vulgaris OX-19; assay: Antibacterial activity, agar-dilution MIC, organism No. 20; conditions: Proteus vulgaris, OX19; Organism No. 20, bouillon-agar; read-out: Minimum Inhibitory Concentration
Method in brief: as §1

[21] = tested on: Proteus vulgaris HX-19; assay: Antibacterial activity, agar-dilution MIC, organism No. 21; conditions: Proteus vulgaris, HX19; Organism No. 21, bouillon-agar; read-out: Minimum Inhibitory Concentration
Method in brief: as §1

[22] = tested on: Proteus rettgeri IFO 3850; assay: Antibacterial activity, agar-dilution MIC, organism No. 22; conditions: Providencia rettgeri, IFO3850; Organism No. 22, bouillon-agar; read-out: Minimum Inhibitory Concentration
Method in brief: as §1

[23] = tested on: Enterobacter aerogenes ATCC 13048; assay: Antibacterial activity, agar-dilution MIC, organism No. 23; conditions: Klebsiella aerogenes, ATCC13048; Organism No. 23, bouillon-agar; read-out: Minimum Inhibitory Concentration
Method in brief: as §1

[24] = tested on: Enterobacter cloacae 963; assay: Antibacterial activity, agar-dilution MIC, organism No. 24; conditions: Enterobacter cloacae, 963; Organism No. 24, bouillon-agar; read-out: Minimum Inhibitory Concentration
Method in brief: as §1

[25] = tested on: Micrococcus luteus ATCC 9341; assay: Antibacterial activity, agar-dilution MIC, organism No. 25; conditions: Micrococcus luteus, ATCC9341; Organism No. 25, bouillon-agar; read-out: Minimum Inhibitory Concentration
Method in brief: as §1

[26] = tested on: Streptococcus pyogenes IFO 3340; assay: Antibacterial activity, agar-dilution MIC, organism No. 26; conditions: Streptococcus pyogenes, IFO3340; Organism No. 26, bouillon-agar; read-out: Minimum Inhibitory Concentration
Method in brief: as §1

[27] = tested on: Streptococcus faecium IFO 3826; assay: Antibacterial activity, agar-dilution MIC, organism No. 27; conditions: Enterococcus faecium, IFO3826; Organism No. 27, bouillon-agar; read-out: Minimum Inhibitory Concentration
Method in brief: as §1

[28] = tested on: Mycoplasma pneumoniae IID817; assay: Antimycoplasmal activity, MIC by phenol red colour change, organism No. 28; conditions: Mycoplasma, IID817; Organism No. 28, PPLO broth + 1% glucose, 37° C.; read-out: Minimum Inhibitory Concentration (MIC)
Protocol: Mycoplasma pneumoniae IID817 was used as the test microorganism in a culture medium prepared by adding 1% of glucose to "PPLO broth (manufactured by Difco Co.) liquid culture medium" at 37° C. with phenol red as an indicator, thereby culturing the test microorganism.

[29] = tested on: Candida albicans IAM 4905; assay: Antifungal activity, agar-dilution MIC, organism No. 29; conditions: Candida albicans, IAM4905; Organism No. 29, bouillon-agar; read-out: Minimum Inhibitory Concentration
Method in brief: as §1

[30] = tested on: Aspergillus niger IFO 6342; assay: Antifungal activity, agar-dilution MIC, organism No. 30; conditions: Aspergillus niger, IFO6342; Organism No. 30, bouillon-agar; read-out: Minimum Inhibitory Concentration
Method in brief: as §1

Compound | MIC [1] [µg/mL] | MIC [2] [µg/mL] | MIC [3] [µg/mL] | MIC [5] [µg/mL] | MIC [6] [µg/mL] | MIC [7] [µg/mL] | MIC [8] [µg/mL] | MIC [9] [µg/mL] | MIC [10] [µg/mL] | MIC [11] [µg/mL] | MIC [12] [µg/mL] | MIC [13] [µg/mL] | MIC [14] [µg/mL] | MIC [15] [µg/mL] | MIC [16] [µg/mL] | MIC [17] [µg/mL] | MIC [18] [µg/mL] | MIC [19] [µg/mL] | MIC [20] [µg/mL] | MIC [21] [µg/mL] | other results
[C-]#[N+]C12CC3(/C=C/C(=O)OC)OC3C1O2 (centres unmarked) [Compound No. 1] | 12.5 (≈ 60.3 µM) | 12.5 (≈ 60.3 µM) | 6.25 (≈ 30.2 µM) | 12.5 (≈ 60.3 µM) | 12.5 (≈ 60.3 µM) | 6.25 (≈ 30.2 µM) | 12.5 (≈ 60.3 µM) | 3.13 (≈ 15.1 µM) | 6.25 (≈ 30.2 µM) | 6.25 (≈ 30.2 µM) | 6.25 (≈ 30.2 µM) | 200 (≈ 965 µM) | 50 (≈ 241 µM) | > 200 | > 200 | > 200 | 6.25 (≈ 30.2 µM) | 6.25 (≈ 30.2 µM) | 6.25 (≈ 30.2 µM) | 0.2 (≈ 0.965 µM) | MIC [4]: 200 µg/mL (≈ 965 µM); MIC [22]: 25 µg/mL (≈ 121 µM); MIC [23]: > 200 µg/mL; MIC [24]: 25 µg/mL (≈ 121 µM); MIC [25]: 6.25 µg/mL (≈ 30.2 µM); MIC [26]: 100 µg/mL (≈ 483 µM); MIC [27]: 12.5 µg/mL (≈ 60.3 µM); MIC [28]: < 0.2 µg/mL; MIC [29]: 6.25 µg/mL (≈ 30.2 µM); MIC [30]: 12.5 µg/mL (≈ 60.3 µM)
[C-]#[N+]C12CC3(/C=C/C(=O)OCC(=O)c4ccccc4)OC3C1O2 (centres unmarked) [Compound No. 3] | 0.2 (≈ 0.642 µM) | 3.13 (≈ 10.1 µM) | 0.05 (≈ 0.161 µM) | 50 (≈ 161 µM) | 50 (≈ 161 µM) | 6.25 (≈ 20.1 µM) | 50 (≈ 161 µM) | 12.5 (≈ 40.2 µM) | 6.25 (≈ 20.1 µM) | 6.25 (≈ 20.1 µM) | 12.5 (≈ 40.2 µM) | > 100 | 50 (≈ 161 µM) | > 100 | > 100 | > 100 | 3.13 (≈ 10.1 µM) | 50 (≈ 161 µM) | 1.56 (≈ 5.01 µM) | 0.05 (≈ 0.161 µM) | MIC [4]: 6.25 µg/mL (≈ 20.1 µM); MIC [22]: 50 µg/mL (≈ 161 µM); MIC [23]: > 100 µg/mL; MIC [24]: > 100 µg/mL; MIC [25]: 0.2 µg/mL (≈ 0.642 µM); MIC [26]: 6.25 µg/mL (≈ 20.1 µM); MIC [27]: 3.13 µg/mL (≈ 10.1 µM); MIC [28]: 0.05 µg/mL; MIC [29]: 0.8 µg/mL (≈ 2.57 µM); MIC [30]: 3.13 µg/mL (≈ 10.1 µM)
[C-]#[N+]C12CC3(/C=C/C(=O)Nc4ccc(C(F)(F)F)cc4)OC3C1O2 (centres unmarked) [compound 46] | 0.1 (≈ 0.297 µM) | 0.39 (≈ 1.16 µM) | < 0.05 | > 200 | > 200 | 0.39 (≈ 1.16 µM) | 50 (≈ 149 µM) | 50 (≈ 149 µM) | 0.78 (≈ 2.32 µM) | 0.78 (≈ 2.32 µM) | 25 (≈ 74.3 µM) | 200 (≈ 595 µM) | 6.25 (≈ 18.6 µM) | > 200 | > 200 | > 200 | 1.56 (≈ 4.64 µM) | > 200 | 0.39 (≈ 1.16 µM) | 0.39 (≈ 1.16 µM) | MIC [22]: 200 µg/mL (≈ 595 µM); MIC [23]: > 200 µg/mL; MIC [24]: > 200 µg/mL; MIC [25]: < 0.05 µg/mL; MIC [26]: 3.13 µg/mL (≈ 9.31 µM); MIC [27]: > 200 µg/mL; MIC [28]: < 0.2 µg/mL; MIC [29]: 1.56 µg/mL (≈ 4.64 µM); MIC [30]: 3.13 µg/mL (≈ 9.31 µM)
